What was measured:
[1] = biological target: T1, Vent(exo−) DNA polymerase (Thermococcus litoralis, UniProt P30317, D141A/E143A); test: PEP termination assay; type: biochemical
T1 sequence (P30317 with tags, fused parts or gaps D141A/E143A): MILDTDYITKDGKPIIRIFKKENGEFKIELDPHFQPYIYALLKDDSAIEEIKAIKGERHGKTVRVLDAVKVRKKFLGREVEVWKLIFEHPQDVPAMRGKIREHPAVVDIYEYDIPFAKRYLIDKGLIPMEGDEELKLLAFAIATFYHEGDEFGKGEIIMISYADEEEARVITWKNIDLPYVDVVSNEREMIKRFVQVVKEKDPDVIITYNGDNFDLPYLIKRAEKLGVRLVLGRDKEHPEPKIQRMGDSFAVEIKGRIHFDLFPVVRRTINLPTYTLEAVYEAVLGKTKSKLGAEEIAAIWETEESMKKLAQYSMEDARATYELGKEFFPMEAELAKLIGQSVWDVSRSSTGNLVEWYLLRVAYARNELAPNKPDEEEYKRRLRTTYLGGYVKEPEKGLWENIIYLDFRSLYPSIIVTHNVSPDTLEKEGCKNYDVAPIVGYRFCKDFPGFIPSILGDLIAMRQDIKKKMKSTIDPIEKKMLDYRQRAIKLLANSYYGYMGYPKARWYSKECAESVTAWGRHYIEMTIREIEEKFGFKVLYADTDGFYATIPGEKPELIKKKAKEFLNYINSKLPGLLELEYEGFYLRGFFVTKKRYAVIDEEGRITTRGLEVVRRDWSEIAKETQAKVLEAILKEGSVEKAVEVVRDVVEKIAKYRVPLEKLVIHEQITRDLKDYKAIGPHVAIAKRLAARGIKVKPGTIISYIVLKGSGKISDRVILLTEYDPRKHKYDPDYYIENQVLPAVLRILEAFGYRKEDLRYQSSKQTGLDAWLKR

[2] = biological target: T2, DeepVent(exo−) DNA polymerase (Pyrococcus sp. GB-D, UniProt Q51334, D141A/E143A); test: PEP termination assay; type: biochemical, Pyrococcus species GB-D
T2 sequence (Q51334 with tags, fused parts or gaps D141A/E143A): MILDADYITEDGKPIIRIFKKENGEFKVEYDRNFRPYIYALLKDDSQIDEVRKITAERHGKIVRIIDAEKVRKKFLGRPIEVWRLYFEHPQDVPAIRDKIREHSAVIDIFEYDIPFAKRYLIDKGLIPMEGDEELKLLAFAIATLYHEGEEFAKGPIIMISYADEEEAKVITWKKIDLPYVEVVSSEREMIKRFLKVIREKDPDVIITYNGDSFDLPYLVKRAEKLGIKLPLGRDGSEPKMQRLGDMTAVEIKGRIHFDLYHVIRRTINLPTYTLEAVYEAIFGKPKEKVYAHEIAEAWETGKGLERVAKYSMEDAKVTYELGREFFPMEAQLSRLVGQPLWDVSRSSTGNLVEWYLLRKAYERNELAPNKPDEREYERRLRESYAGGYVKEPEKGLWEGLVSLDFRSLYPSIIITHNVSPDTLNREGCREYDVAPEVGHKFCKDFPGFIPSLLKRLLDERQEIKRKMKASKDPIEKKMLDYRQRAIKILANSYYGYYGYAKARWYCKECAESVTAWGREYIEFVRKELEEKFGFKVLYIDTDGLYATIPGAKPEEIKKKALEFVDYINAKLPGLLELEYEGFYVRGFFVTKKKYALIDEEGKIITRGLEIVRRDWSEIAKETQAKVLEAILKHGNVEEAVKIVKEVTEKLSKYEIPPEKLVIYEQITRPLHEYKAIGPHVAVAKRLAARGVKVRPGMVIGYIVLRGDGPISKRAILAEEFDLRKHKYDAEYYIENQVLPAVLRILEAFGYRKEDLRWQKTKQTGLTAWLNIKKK

Bst DNA polymerase [3] = biological target: T3, Bst DNA polymerase (Geobacillus stearothermophilus, UniProt P52026); test: PEP termination assay; type: biochemical, Bacillus stearothermophilus
T3 sequence (P52026 289-876 limits assumed): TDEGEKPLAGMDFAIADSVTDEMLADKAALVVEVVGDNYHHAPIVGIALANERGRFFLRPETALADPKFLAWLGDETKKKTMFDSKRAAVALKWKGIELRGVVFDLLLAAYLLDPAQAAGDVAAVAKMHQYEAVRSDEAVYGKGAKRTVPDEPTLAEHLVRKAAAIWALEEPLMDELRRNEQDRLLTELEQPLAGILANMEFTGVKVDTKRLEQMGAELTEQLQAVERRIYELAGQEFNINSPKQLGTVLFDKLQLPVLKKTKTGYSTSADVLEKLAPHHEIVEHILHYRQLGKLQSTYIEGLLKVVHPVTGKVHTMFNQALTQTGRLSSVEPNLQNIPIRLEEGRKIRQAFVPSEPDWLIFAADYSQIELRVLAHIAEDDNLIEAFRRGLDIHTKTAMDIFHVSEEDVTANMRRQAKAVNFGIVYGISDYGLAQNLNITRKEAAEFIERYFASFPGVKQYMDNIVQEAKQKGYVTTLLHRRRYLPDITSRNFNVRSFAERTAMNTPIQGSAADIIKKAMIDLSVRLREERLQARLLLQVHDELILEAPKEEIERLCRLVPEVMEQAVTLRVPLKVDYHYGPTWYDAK

[4] = biological target: Klenow(exo−) DNA polymerase (Escherichia coli, UniProt P00582, D355A/E357A); test: PEP termination assay; type: biochemical
Bst DNA polymerase [5] = biological target: T3, Bst DNA polymerase; test: Five-base CRT sequencing experiment on solid support; type: biochemical, Bacillus stearothermophilus
[6] = biological target: AmpliTaqFS DNA polymerase (Thermus aquaticus, UniProt P19821, F667Y/G46D); test: PEP termination assay; type: biochemical, Thermus aquaticus YT-1
[7] = Klenow(exo−), 25× IC50, oligoTemplate-3

Chain of AmpliTaqFS DNA polymerase (P19821 whole entry G46D/F667Y): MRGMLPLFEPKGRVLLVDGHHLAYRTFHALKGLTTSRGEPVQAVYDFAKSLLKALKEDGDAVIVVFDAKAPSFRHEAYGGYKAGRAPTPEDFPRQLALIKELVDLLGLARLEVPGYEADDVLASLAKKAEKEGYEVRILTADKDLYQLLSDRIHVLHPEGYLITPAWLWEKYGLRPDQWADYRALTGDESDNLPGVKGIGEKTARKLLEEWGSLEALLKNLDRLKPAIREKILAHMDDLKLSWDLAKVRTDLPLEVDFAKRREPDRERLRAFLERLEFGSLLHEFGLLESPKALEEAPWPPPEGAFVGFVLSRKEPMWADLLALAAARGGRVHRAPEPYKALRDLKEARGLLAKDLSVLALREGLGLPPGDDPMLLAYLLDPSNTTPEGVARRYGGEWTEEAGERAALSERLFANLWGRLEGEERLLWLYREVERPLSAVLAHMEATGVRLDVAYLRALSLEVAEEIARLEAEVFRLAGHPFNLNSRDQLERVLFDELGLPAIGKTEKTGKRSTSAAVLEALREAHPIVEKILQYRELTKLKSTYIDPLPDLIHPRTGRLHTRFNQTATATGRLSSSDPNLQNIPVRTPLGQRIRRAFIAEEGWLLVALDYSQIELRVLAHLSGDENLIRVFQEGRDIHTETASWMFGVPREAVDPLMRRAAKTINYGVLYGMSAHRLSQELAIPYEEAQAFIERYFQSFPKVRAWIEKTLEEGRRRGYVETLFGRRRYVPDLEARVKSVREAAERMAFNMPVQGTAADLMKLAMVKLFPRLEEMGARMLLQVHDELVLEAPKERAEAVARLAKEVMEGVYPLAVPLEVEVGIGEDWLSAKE

Compound: O=[N+]([O-])c1ccccc1CNc1ncnc2c1ncn2[C@H]1C[C@H](O)[C@@H](COP(=O)(O)OP(=O)(O)OP(=O)(O)O)O1 [Compound IIIc, N^6-(2-Nitrobenzyl)-2’-deoxyadenosine-5’-triphosphate]
- IC50 [1]: 2.1 nM
- IC50 [2]: 11 nM
- IC50 (Bst DNA polymerase [3]): 10 nM
- % 1st Base (Bst DNA polymerase [3]; Bst, 25× IC50, oligoTemplate-3): 99.1 ± 0.3%
- % 2nd Base (Bst DNA polymerase [3]; Bst, 25× IC50, oligoTemplate-3): <0.1%
- % Primer (Bst DNA polymerase [3]; Bst, 25× IC50, oligoTemplate-3): 0.9 ± 0.3%
- Extension / termination of DNA synthesis on 10-thymidine template (Bst DNA polymerase [3]; Bst, at 25× its IC50 value): efficiently incorporated and terminated Bst DNA synthesis at the first-base position
- IC50 [4]: 4.3 nM
- % 1st Base [4, 7]: 76.1 ± 1.8%
- % 2nd Base [4, 7]: 6.2 ± 0.5%
- % Primer [4, 7]: 17.7 ± 2.2%
- Share of total signal derived from the correct +1 product (Bst DNA polymerase [5]): ≥ 80%
- Estimated signal S (Bst DNA polymerase [5]; S = (Ceff)^RL, five-base read): 68.4%
- Signal for the correct +1 product (T × C) (Bst DNA polymerase [5]; at cycle five): 40%
- Incorporation efficiency (I) (Bst DNA polymerase [5]; first cycle, on a solid support, 250 nM, Bst): 98.6%
- Deprotection efficiency (D) (Bst DNA polymerase [5]; first cycle, on a solid support, 365 nm light): 94%
- Cycle efficiency (Ceff) (Bst DNA polymerase [5]; first cycle, product of I and D, on a solid support): 92.7%
- IC50 [6]: 350 nM

— PMC2095803 (Nucleic Acids Research, 2007)
